Values of other authors in US20120225789A1, “DNA REPAIR OR BRCA1-LIKE GENE SIGNATURE” (Baylor College of Medicine, priority 2009, published 2012).

Test system: mammary tumors in which BRCA1 protein has been lost
Settings: mice spontaneously developing BRCA1-lost mammary tumors

## CC(=O)O[C@@]12CO[C@@H]1C[C@H](O)[C@@]1(C)C(=O)[C@H](O)C3=C(C)[C@@H](OC(=O)[C@H](O)[C@@H](NC(=O)OC(C)(C)C)c4ccccc4)C[C@@](O)([C@@H](OC(=O)c4ccccc4)[C@H]21)C3(C)C [docetaxel]
  response of mice to chemotherapy: resistance

## COc1cccc2c1C(=O)c1c(O)c3c(c(O)c1C2=O)C[C@@](O)(C(=O)CO)C[C@@H]3O[C@H]1C[C@H](N)[C@H](O)[C@H](C)O1 [doxorubicin]
  response of mice to chemotherapy: highly sensitive

## N.N.[Cl][Pt][Cl] [cisplatin]
  response of mice to chemotherapy: highly sensitive
